Measurements as given in paper PMC6576746, “Rational discovery of dual-indication multi-target PDE/Kinase inhibitor for precision anti-cancer therapy using structural systems pharmacology” (PLoS Computational Biology, 2019).

Tests used:
Assay in all cases: biochemical
Parameters in all cases: DiscoverX KinomeScan competition binding assay across human kinases; per cent of control at 10 and 100 uM
[1] = biological target: T1, RPS6KA4(Kin.Dom.1-N-terminal) (Homo sapiens, UniProt O75676); settings: competition binding, % of control; read-out: Percent Control (100 uM Levosimendan)
T1 construct: Kin.Dom.1-N-terminal
Experimental: (§1) To validate our computational predictions, we employed a competition binding assay to detect the binding of levosimendan to 425 human kinases as well as its dose-response curve to RIOK1. The proprietary KinomeScan assay was performed by DiscoverX (Fremont, California, USA). The tests were performed at 10 μM and 100 μM concentrations of levosimendan, respectively. Assay results were reported as %control, calculated as follows: %control=(TestCompoundSignal−PositiveControlSignal)/(NegativeControlSignal−PositiveControlSignal)×100 KinomeScan assay across 452 human kinases verified our computational prediction (S1 Table). RIOK1 is one of the strongest inhibited kinases by levosimendan. The percentage control of RIOK1 is 15.0 and 0.0 under the treatment of 10 μM and 100 μM of levosimendan, respectively. […] The percentage controls of five kinases: FLT3, MAP2K5, PIP5K1A, GAK, and KIT are less than 30.0 under the treatment of both 10 μM and 100 μM of levosimendan. Both FLT3 and KIT are tyrosine protein kinases. Their inhibitors have recently been approved for the treatment of Acute Myeloid Leukemia and other types of cancers, but a combination therapy is needed to overcome rapidly emerged drug resistance, thus improve patients’ drug responses. Other kinases inhibited by levosimendan belong to serine/threonine protein kinase family (RIOK1, RIOK3, GAK, and MAP2K5) and lipid kinase family (PIP5K1A). […] As a result, levosimendan may modulate different cancer pathways from those by the tyrosine protein kinase inhibitors, and it could be a novel lead compound for a new anti-cancer therapy to overcome drug resistance of existing drugs or to target different types of cancers through polypharmacology or drug combination.

DDR2 = DDR2 (Homo sapiens, UniProt Q16832); settings: competition binding, % of control; read-out: Percent Control (100 uM Levosimendan)
Experimental: as §1

CSNK1D = CSNK1D (Homo sapiens, UniProt P48730); settings: competition binding, % of control; read-out: Percent Control (100 uM Levosimendan)
Experimental: as §1

TNIK = TNIK (Homo sapiens, UniProt Q9UKE5); settings: competition binding, % of control
TNIK, sequence (Q9UKE5 whole entry): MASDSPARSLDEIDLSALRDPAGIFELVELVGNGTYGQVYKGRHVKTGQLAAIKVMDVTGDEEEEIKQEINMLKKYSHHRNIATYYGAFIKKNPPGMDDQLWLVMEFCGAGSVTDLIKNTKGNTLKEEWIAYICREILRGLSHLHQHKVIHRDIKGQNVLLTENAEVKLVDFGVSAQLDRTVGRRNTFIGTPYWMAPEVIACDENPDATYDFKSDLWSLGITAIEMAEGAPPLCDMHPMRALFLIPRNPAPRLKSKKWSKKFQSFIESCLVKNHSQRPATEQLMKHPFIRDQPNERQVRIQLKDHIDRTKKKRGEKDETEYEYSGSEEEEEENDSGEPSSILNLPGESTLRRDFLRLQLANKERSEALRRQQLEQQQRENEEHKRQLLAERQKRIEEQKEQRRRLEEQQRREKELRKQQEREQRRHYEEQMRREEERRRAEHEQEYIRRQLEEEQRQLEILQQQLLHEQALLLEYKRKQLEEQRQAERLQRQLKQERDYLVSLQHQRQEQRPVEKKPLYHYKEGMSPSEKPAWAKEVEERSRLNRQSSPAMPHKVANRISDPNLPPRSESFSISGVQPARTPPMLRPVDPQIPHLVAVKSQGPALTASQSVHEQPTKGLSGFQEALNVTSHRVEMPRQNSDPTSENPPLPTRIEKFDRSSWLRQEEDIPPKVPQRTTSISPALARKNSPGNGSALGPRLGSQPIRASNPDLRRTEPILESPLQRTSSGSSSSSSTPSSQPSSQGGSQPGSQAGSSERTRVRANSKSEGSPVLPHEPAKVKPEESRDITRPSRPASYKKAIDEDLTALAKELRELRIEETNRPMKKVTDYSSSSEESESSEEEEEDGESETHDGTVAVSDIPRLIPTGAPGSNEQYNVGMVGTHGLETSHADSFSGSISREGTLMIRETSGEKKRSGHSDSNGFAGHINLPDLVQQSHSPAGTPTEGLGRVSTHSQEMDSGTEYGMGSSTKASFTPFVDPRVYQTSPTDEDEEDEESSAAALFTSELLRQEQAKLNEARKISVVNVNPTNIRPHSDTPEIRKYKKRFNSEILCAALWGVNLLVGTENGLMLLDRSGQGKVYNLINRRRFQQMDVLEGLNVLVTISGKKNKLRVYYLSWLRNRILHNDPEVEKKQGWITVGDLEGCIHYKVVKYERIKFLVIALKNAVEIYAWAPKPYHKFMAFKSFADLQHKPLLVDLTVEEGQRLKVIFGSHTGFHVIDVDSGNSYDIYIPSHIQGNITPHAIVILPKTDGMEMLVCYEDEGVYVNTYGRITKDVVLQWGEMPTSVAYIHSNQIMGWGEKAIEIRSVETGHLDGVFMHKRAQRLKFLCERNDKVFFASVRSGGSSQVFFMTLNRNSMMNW
Experimental: as §1

MEK6 = biological target: T2, MEK6 (Homo sapiens, UniProt P52564); settings: competition binding, % of control; read-out: Percent Control (100 uM Levosimendan)
T2 construct: gene MAP2K6
T2 sequence (P52564 whole entry): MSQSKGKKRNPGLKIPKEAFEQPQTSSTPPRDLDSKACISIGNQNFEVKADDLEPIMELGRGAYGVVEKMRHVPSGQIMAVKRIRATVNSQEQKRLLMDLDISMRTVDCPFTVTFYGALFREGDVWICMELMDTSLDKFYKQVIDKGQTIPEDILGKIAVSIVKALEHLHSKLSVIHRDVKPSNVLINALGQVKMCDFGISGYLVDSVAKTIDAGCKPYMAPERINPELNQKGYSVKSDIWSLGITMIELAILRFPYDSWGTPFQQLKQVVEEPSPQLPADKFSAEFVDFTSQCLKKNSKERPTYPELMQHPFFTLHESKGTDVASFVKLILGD
Experimental: as §1

PIK3C2B = PIK3C2B (Homo sapiens, UniProt O00750); settings: competition binding, % of control; read-out: Percent Control (100 uM Levosimendan)
Experimental: as §1

MEK5 = biological target: T3, MEK5 (Homo sapiens, UniProt Q13163); settings: competition binding, % of control
T3 construct: gene MAP2K5
T3 sequence (Q13163 whole entry): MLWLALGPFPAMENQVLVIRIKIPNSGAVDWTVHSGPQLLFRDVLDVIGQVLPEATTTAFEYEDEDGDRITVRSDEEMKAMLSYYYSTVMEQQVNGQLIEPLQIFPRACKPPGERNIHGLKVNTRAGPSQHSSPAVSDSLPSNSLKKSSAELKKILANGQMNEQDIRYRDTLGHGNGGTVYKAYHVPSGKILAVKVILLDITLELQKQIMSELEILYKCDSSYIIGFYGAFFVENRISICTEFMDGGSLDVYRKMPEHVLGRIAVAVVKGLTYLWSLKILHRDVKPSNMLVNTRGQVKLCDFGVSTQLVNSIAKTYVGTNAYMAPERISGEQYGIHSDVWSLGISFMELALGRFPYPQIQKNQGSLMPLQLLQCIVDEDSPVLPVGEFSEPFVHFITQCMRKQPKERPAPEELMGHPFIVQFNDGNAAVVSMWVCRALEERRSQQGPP
Experimental: as §1

LRRK2 = LRRK2 (Homo sapiens, UniProt Q5S007); settings: competition binding, % of control; read-out: Percent Control (100 uM Levosimendan)
Experimental: as §1

[2] = biological target: T4, RSK2(Kin.Dom.1-N-terminal) (Homo sapiens, UniProt P51812); settings: competition binding, % of control
T4 construct: gene RPS6KA3; Kin.Dom.1-N-terminal
T4 sequence (P51812 whole entry): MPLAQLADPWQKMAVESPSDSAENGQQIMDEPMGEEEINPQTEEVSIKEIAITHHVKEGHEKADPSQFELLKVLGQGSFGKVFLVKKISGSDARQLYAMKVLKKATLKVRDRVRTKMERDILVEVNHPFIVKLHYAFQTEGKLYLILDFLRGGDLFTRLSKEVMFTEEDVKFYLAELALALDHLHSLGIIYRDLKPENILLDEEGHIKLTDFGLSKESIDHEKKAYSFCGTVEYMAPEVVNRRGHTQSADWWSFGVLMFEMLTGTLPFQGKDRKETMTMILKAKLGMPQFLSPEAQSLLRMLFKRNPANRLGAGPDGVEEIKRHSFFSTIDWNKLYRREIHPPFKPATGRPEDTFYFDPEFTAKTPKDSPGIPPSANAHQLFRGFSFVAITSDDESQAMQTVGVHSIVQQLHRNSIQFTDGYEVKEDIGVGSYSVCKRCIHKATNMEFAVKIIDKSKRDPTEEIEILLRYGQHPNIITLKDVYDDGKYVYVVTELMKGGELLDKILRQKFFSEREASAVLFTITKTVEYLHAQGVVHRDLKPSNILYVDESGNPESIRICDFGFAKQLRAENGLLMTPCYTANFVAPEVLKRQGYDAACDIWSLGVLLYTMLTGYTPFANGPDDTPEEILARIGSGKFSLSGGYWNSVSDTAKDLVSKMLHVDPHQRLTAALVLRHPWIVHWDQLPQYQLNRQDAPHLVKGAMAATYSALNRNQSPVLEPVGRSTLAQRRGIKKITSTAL
Experimental: as §1

LZK = biological target: T5, LZK (Homo sapiens, UniProt O43283); settings: competition binding, % of control; read-out: Percent Control (100 uM Levosimendan)
T5 construct: gene MAP3K13
Experimental: as §1

CHEK1 = CHEK1 (Homo sapiens, UniProt O14757); settings: competition binding, % of control; read-out: Percent Control (100 uM Levosimendan)
Experimental: as §1

PIK3CA(H1047L) = PIK3CA(H1047L) (Homo sapiens, UniProt P42336, H1047L); settings: competition binding, % of control; read-out: Percent Control (100 uM Levosimendan)
Experimental: as §1

AKT1 = AKT1 (Homo sapiens, UniProt P31749); settings: competition binding, % of control; read-out: Percent Control (100 uM Levosimendan)
Experimental: as §1

ARK5 = biological target: T6, ARK5 (Homo sapiens, UniProt O60285); settings: competition binding, % of control; read-out: Percent Control (100 uM Levosimendan)
T6 construct: gene NUAK1
Experimental: as §1

CSNK1G3 = CSNK1G3 (Homo sapiens, UniProt Q9Y6M4); settings: competition binding, % of control
CSNK1G3, sequence (Q9Y6M4 whole entry): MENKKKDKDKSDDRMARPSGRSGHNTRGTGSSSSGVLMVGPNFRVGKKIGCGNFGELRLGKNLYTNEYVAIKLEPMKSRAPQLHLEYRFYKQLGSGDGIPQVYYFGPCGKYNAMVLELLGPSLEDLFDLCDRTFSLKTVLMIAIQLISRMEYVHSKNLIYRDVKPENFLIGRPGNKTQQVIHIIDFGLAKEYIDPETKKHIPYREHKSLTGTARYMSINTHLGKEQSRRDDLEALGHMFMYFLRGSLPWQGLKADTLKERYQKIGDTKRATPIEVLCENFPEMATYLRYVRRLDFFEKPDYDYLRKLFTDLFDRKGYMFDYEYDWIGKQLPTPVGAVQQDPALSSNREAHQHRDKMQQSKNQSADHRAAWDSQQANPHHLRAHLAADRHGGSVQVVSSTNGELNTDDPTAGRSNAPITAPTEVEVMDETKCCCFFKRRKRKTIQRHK
Experimental: as §1

PIP5K1A = PIP5K1A (Homo sapiens, UniProt Q99755); settings: competition binding, % of control
PIP5K1A, sequence (Q99755 whole entry): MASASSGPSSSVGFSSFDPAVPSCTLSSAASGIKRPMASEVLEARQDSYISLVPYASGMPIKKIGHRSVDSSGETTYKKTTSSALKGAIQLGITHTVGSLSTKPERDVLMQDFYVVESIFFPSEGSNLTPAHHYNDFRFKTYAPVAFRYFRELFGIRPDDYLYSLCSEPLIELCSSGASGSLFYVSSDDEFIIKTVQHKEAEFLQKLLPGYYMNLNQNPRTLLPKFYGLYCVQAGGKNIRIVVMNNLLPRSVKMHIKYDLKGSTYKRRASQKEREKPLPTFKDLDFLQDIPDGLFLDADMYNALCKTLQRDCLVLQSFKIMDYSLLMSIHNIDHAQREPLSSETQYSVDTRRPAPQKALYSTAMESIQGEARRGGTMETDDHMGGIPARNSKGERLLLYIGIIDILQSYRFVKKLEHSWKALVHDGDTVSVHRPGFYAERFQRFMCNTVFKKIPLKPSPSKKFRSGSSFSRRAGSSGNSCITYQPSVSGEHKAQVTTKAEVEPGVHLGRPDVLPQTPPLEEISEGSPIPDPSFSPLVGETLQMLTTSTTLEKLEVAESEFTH
Experimental: as §1

TYRO3 = TYRO3 (Homo sapiens, UniProt Q06418); settings: competition binding, % of control; read-out: Percent Control (100 uM Levosimendan)
Experimental: as §1

ULK1 = ULK1 (Homo sapiens, UniProt O75385); settings: competition binding, % of control; read-out: Percent Control (100 uM Levosimendan)
ULK1, sequence (O75385 whole entry): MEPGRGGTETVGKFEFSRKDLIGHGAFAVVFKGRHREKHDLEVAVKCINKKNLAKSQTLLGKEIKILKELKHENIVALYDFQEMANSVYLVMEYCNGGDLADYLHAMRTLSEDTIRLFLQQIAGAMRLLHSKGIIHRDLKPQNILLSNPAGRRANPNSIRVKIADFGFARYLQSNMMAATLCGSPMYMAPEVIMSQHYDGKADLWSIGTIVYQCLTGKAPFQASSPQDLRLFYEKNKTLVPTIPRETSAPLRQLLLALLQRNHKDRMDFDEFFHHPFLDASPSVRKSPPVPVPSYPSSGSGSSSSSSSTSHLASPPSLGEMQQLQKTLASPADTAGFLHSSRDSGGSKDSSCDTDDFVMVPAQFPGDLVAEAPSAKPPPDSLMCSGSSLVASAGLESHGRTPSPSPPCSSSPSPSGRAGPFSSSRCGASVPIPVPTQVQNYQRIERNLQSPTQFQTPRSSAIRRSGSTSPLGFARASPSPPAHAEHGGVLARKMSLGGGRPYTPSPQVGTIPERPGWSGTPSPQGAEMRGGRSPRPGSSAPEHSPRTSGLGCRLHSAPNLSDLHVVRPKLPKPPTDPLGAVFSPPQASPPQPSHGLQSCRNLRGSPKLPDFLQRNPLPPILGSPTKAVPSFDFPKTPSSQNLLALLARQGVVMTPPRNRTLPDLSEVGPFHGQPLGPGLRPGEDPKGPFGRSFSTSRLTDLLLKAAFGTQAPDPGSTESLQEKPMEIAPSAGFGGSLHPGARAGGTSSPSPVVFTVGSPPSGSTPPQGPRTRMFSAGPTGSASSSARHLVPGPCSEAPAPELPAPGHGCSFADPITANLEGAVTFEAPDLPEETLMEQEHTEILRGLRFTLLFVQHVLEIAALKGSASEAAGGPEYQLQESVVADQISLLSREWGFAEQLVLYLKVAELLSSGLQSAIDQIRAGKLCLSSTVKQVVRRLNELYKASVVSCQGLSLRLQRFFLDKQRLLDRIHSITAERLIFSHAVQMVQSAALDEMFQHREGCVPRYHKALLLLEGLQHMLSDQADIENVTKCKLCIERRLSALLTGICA
Experimental: as §1

[3] = read-out: Percent Control (10 uM Levosimendan)
[4] = read-out: Percent Control (100 uM Levosimendan)

- remaining binding at 100 µM [1]: 53%
- remaining binding at 100 µM (DDR2): 79%
- remaining binding at 100 µM (CSNK1D): 84%
- remaining binding at 10 µM (TNIK; [3]): 77%
- remaining binding at 100 µM (TNIK; [4]): 32%
- remaining binding at 100 µM (MEK6): 100%
- remaining binding at 100 µM (PIK3C2B): 90%
- remaining binding at 10 µM (MEK5; [3]): 17%
- remaining binding at 100 µM (MEK5; [4]): 2.6%
- remaining binding at 100 µM (LRRK2): 77%
- remaining binding at 10 µM [2, 3]: 85%
- remaining binding at 100 µM [2, 4]: 35%
- remaining binding at 100 µM (LZK): 100%
- remaining binding at 100 µM (CHEK1): 85%
- remaining binding at 100 µM (PIK3CA(H1047L)): 100%
- remaining binding at 100 µM (AKT1): 56%
- remaining binding at 100 µM (ARK5): 100%
- remaining binding at 10 µM (CSNK1G3; [3]): 83%
- remaining binding at 100 µM (CSNK1G3; [4]): 36%
- remaining binding at 10 µM (PIP5K1A; [3]): 22%
- remaining binding at 100 µM (PIP5K1A; [4]): 6.2%
- remaining binding at 100 µM (TYRO3): 94%
- remaining binding at 100 µM (ULK1): 95%
Structure (SMILES): C[C@@H]1CC(=O)NN=C1c1ccc(NN=C(C#N)C#N)cc1 [levosimendan]
